Structures are written as SMILES. Converted amounts (≈) assume the structure as drawn. Like-named read-outs stand apart in the source and are kept apart here.

As a reminder, the IC50 is the concentration needed to halve the response being measured. By MIC is commonly meant the lowest concentration found to suppress growth.

Experiment [1] is described as follows: Animal Study 2 (oral glucose tolerance test). Further details: species or system Crlj:CD1 (ICR) mice. The settings on record: Mus musculus, read-out: In vivo studies 300 mg/kg (oral glucose tolerance test, % decrease). The source says:
The results of in vivo oral glucose tolerance test (Example 39), expressed as % decrease, are presented as follows: […]
Animal Study 2 (Oral Glucose Tolerance Test)
Male Crlj:CD1 (ICR) mice were obtained from Charles River Laboratries Japan (Yokohama, Japan). All mice were given a standard diet (Clea Japan, Tokyo, Japan) and tap water ad libitum. All institutional guidelines for animal care and use were applied in this study. Test compounds were suspended in 0.3% carboxymethyl-cellulose sodium salt (CMC-Na; Sigma, St. Louis, Mo.). After fasting for 15-17 hr, the test compound (300 mg/kg) or vehicle (0.3% CMC-Na) was orally administered to 7-week-old ICR mice. Glucose solution (5 g/kg) was orally administered at 30 min after test compound treatment. Blood samples were collected from tail vein using capillary tubes containing EDTA·2K before test compound treatment, and at 0, 0.5, 1, and 2 hr after glucose load. The blood samples were centrifuged at 2,500×g for 5 min and separated plasma was kept on ice and analyzed in the same day. Plasma glucose levels were determined using the glucose C II-test (Wako Pure Chemical Industries, Osaka, Japan).
The sum of plasma glucose levels at 0.5 and 1 hr after glucose load was compared to that of vehicle treatment, and results were presented as percent decrease.

Experiment [2] concerns the target T1, recombinant full-length human GSK3β (Homo sapiens, UniProt P49841).
T1 construct: recombinant full-length human GSK3β (Upstate); purchased Upstate
Put plainly: Luciferase-coupled cell-free GSK3β kinase assay. The class given is biochemical. The method in brief:
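GSK3β, 10-25 ng, was incubated with compound for 1 h at 30° C in MOPS pH 7.0 buffer containing 62.5 μM phospho-glycogen synthase peptide-2 and 5 μM ATP. Remaining ATP was read by KinaseGlo luminescence, and IC50 was fitted from % inhibition relative to maximal inhibition.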

A further experiment concerns E. coli, ATCC8739. Description: Antibacterial activity (MIC), E. coli. The class given is cell-based. The note with it: Escherichia coli, E. coli ATCC8739. The method in brief: (§1)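 MIC, the lowest compound concentration inhibiting bacterial growth in culture medium, determined by dilution method per CLSI M7-A4 guidance; reported in μM.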
The next experiment concerns S. aureus Smith. Put plainly: Antibacterial activity (MIC), S. aureus. The note with it: Staphylococcus aureus. It is filed as cell-based. The method in brief:
as §1

The mark [3] stands for this setting: Table 2, 300 mg/kg oral, ICR mice, plasma glucose 0.5 and 1 hr after glucose load vs vehicle.
[4] abbreviates: ATCC8739, Table 2, read-out: Antimicrobial MIC [μM] E. Coli.
[5] abbreviates: Table 2, S. aureus Smith, read-out: Antimicrobial MIC [μM] S. aureus.
The mark [6] stands for this setting: ATCC8739, Table 1, read-out: Antibacterial MIC (μM) E.Coli.
[7] abbreviates: Table 1, read-out: Antibacterial MIC (μM) S. aureus Smith.

T1 sequence (P49841 whole entry): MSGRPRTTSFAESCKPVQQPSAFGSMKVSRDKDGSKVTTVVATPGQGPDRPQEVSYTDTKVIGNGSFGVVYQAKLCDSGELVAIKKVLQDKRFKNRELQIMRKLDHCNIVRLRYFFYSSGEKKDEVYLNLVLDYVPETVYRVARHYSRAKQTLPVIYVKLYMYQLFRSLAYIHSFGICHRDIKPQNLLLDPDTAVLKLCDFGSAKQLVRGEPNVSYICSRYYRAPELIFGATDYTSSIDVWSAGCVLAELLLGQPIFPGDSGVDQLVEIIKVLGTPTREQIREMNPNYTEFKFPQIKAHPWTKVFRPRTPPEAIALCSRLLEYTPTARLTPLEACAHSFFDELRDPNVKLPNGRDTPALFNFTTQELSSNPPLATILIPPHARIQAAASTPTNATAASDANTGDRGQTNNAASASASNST

For `Cc1nn(C)c(C)c1CCCNc1c(F)c(N)c2c(=O)c(C(=O)O)cn3c2c1OC[C@@H]3C` [Example 93], the inhibition in vivo at 300 mg/kg in experiment [1] (setting [3]) was more than 20%.

With `C[C@H]1COc2c(NCCOc3ccc(F)cc3)c(F)c(N)c3c(=O)c(C(=O)O)cn1c23` [Example 101], the IC50 in experiment [2] (Table 2) was less than 100 nM. Moreover, in experiment [1] (setting [3]), the inhibition in vivo at 300 mg/kg lay within 10 to 20%.

Turning to `C[C@H]1COc2c(NCCCn3ccnc3)c(F)c(N)c3c(=O)c(C(N)=O)cn1c23` [Example 107], the IC50 in experiment [2] (Table 2) fell in the range of 100 to 500 nM. The inhibition in vivo at 300 mg/kg in experiment [1] (setting [3]) was 10 to 20%.

With `C[C@H]1COc2c(NCCNc3ccccn3)c(F)c(N)c3c(=O)c(C(N)=O)cn1c23` [Example 109], the IC50 in experiment [2] (Table 2) was less than 100 nM. The inhibition in vivo at 300 mg/kg in experiment [1] (setting [3]) was 10 to 20%.

Turning to `C[C@H]1COc2c(NCCS(=O)(=O)N3CCCCC3)c(F)c(N)c3c(=O)c(C(=O)O)cn1c23` [Example 112], the IC50 in experiment [2] (Table 2) was less than 100 nM. The inhibition in vivo at 300 mg/kg in experiment [1] (setting [3]) is less than 5%.

As for `C[C@H]1COc2c(NCCNC3=NS(=O)(=O)c4ccccc43)c(F)c(N)c3c(=O)c(C(=O)O)cn1c23` [Example 113], the 50% inhibitory concentration (IC50) in experiment [2] (Table 2) is less than 100 nM. The inhibition in vivo at 300 mg/kg in experiment [1] (setting [3]) was less than 5%.

As to `C[C@H]1COc2c(NCCCn3ccnc3)c(F)c(N)c3c(=O)c(C#N)cn1c23` [Example 114], the IC50 in experiment [2] (Table 2) was less than 100 nM. In addition, in experiment [1] (setting [3]), the inhibition in vivo at 300 mg/kg was more than 20%.

Regarding `C[C@H]1COc2c(NCCCc3ccccn3)c(F)c(N)c3c(=O)c(C#N)cn1c23` [Example 115], the IC50 in experiment [2] (Table 2) is less than 100 nM. Besides, the inhibition in vivo at 300 mg/kg in experiment [1] (setting [3]) is less than 5%.

`Nc1c(F)c(NCCNc2ccccn2)cc2c1c(=O)c(C(=O)O)cn2CCc1ccccc1` [Example 119]: the IC50 in experiment [2] (Table 2) is less than 100 nM. Besides, the inhibition in vivo at 300 mg/kg in experiment [1] (setting [3]) is less than 5%. The MIC in the experiment with E. coli, ATCC8739 (setting [4]) lay in the range of 10 to 50 µM (≈ 4.61 to 23.1 µg/mL); with S. aureus Smith (setting [5]), 10 to 50 µM (≈ 4.61 to 23.1 µg/mL).

Take `CC1(C)CCOc2c(NCCNc3ccccn3)c(F)c(N)c3c(=O)c(C(=O)O)cn1c23` [Example 139]: the IC50 in experiment [2] (Table 2) fell in the range of 100 to 500 nM. In addition, the inhibition in vivo at 300 mg/kg in experiment [1] (setting [3]) is more than 20%. For the same molecule, the MIC was more than 50 µM with E. coli, ATCC8739 (setting [4]) and more than 50 µM in the experiment on S. aureus Smith (setting [5]).

On to `CC1(C)COc2c(NCCNc3ccccn3)c(F)c(N)c3c(=O)c(C(=O)O)cn1c23` [compound 17], for which, in experiment [1] (po), the inhibition in vivo at 300 mg/kg is 10 to 20%.

`CC(C)C[C@H]1COc2c(NCCCn3cnc4ccccc43)c(F)c(N)c3c(=O)c(C(=O)O)cn1c23` [compound 49]: the inhibition in vivo at 300 mg/kg in experiment [1] (po) fell in the range of 10 to 20%.

Regarding `CC(C)[C@H]1COc2c(NCCCn3ccnc3)c(F)c(N)c3c(=O)c(C(=O)O)cn1c23` [compound 55], the inhibition in vivo at 300 mg/kg in experiment [1] (po) is 10 to 20%.

With `CC(C)[C@H]1COc2c(NCCNc3ccccn3)c(F)c(N)c3c(=O)c(C(=O)O)cn1c23` [compound 61], the inhibition in vivo at 300 mg/kg in experiment [1] (po) lay within 10 to 20%.

Turning to `CC(C)[C@@H]1COc2c(NCCCn3cnc4ccccc43)c(F)c(N)c3c(=O)c(C(=O)O)cn1c23` [compound 65], the IC50 in experiment [2] (Table 2) was less than 100 nM. Also, the MIC lay in the range of 0.5 to 10 µM (≈ 0.24 to 4.8 µg/mL) with E. coli, ATCC8739 (setting [4]) and 0.5 to 10 µM (≈ 0.24 to 4.8 µg/mL) with S. aureus Smith (setting [5]).

For `Nc1cc(NCCNc2cccc3ccccc23)cc2c1c(=O)ccn2C1CC1` [compound 66], the IC50 in experiment [2] (Table 1) is less than 100 nM. Also, the MIC with E. coli, ATCC8739 (setting [6]) fell in the range of 10 to 50 µM (≈ 3.84 to 19.2 µg/mL); with S. aureus Smith (setting [7]), 10 to 50 µM (≈ 3.84 to 19.2 µg/mL).

As to `COc1c(NCCCc2ccccc2)c(F)c(N)c2c(=O)c(C(=O)O)cn(C3CC3)c12` [compound 67], the IC50 in experiment [2] (Table 1) is less than 100 nM. Besides, the minimal inhibitory concentration (MIC) with E. coli, ATCC8739 (setting [6]) fell in the range of 10 to 50 µM (≈ 4.25 to 21.3 µg/mL); in the experiment on S. aureus Smith (setting [7]), 0.5 to 10 µM (≈ 0.213 to 4.25 µg/mL).

On to `C[C@H]1COc2c(NCCCN3CCCc4ccccc43)c(F)c(N)c3c(=O)c(C(=O)O)cn1c23` [compound 67], for which the IC50 in experiment [2] (Table 2) is less than 100 nM. Besides, the inhibition in vivo at 300 mg/kg in experiment [1] (setting [3]) is 10 to 20%.

For the molecule `COc1c(NCCc2ccncc2)c(F)c(N)c2c(=O)c(C(=O)O)cn(C3CC3)c12` [compound 68], the IC50 in experiment [2] (Table 1) is 500 to 1000 nM. In addition, the MIC in the experiment with E. coli, ATCC8739 (setting [6]) fell in the range of 10 to 50 µM (≈ 4.12 to 20.6 µg/mL); in the experiment with S. aureus Smith (setting [7]), 0.5 to 10 µM (≈ 0.206 to 4.12 µg/mL).

Take `COc1c(NCCCn2ccnc2)c(F)c(N)c2c(=O)c(C(=O)O)cn(C3CC3)c12` [compound 69]: in experiment [2] (Table 1), the half-inhibitory concentration (IC50) is less than 100 nM. Moreover, the MIC in the experiment with E. coli, ATCC8739 (setting [6]) fell in the range of 10 to 50 µM (≈ 4.15 to 20.8 µg/mL); in the experiment with S. aureus Smith (setting [7]) it was 0.5 to 10 µM (≈ 0.208 to 4.15 µg/mL).
